In patent US20190159455A1 (priority 2016, published 2019) one finds Observed efficacy data, which are given here for two compounds.

Where two headings read alike, the source gives them in different places.

The test system of the test is Phytophthora infestans(Phytin). The format is cell-based. Particulars: 7 days after inoculation.

For `O=C(NCCc1ncc(C(F)(F)F)cc1Cl)c1ccccc1C(F)(F)F` [Fluopyram, fluopyram], the Observed efficacy (1 ppm) is given as 10. Consider `c1ccc(-c2noc(-c3cccs3)n2)cc1` [Tioxazafen, tioxazafen], for which the Observed efficacy (4 ppm) is 7.
